Measurements from ChEMBL document CHEMBL1149589, “The influence of the long chain fatty acid on the antagonistic activities of Rhizobium sin-1 lipid A” (Bioorg Med Chem, 2007).
Activity calls are given as the source filed them. No cut-off for these calls is given here.

System: MONO-MAC-6
Assay: Antagonistic activity against Escherichia coli LPS-induced TNFalpha production in human Mono Mac 6 cells after 5.5 hrs
Type: functional, cell-based
Details: for IC50: Homo sapiens, MONO-MAC-6, 5.5 h

Row | IC50 [µM] | SMILES | Inhibition [%] | Activity
1 | 9.1 | CCCCCCCCCCCCC[C@@H](O)CC(=O)N[C@H]1C(=O)O[C@H](CO[C@@H]2O[C@H](CO)[C@@H](O)[C@H](OC(=O)C[C@H](O)CCCCCCCCCCCCC)[C@H]2NC(=O)C[C@@H](CCCCCCCCCCCCC)OC(=O)CCCCCCCCCCCCCCCCCCCCCCCCCC(C)O)[C@@H](O)[C@@H]1OC(=O)C[C@H](O)CCCCCCCCCCCCC (some centres undefined) | 86 | 
2 | 7.5 | CCCCCCCCCCCCCCCCCCCCCCCCCCCC(=O)O[C@H](CCCCCCCCCCCCC)CC(=O)N[C@H]1[C@H](OC[C@H]2OC(=O)[C@H](NC(=O)C[C@H](O)CCCCCCCCCCCCC)[C@@H](OC(=O)C[C@H](O)CCCCCCCCCCCCC)[C@@H]2O)O[C@H](CO)[C@@H](O)[C@@H]1OC(=O)C[C@H](O)CCCCCCCCCCCCC |  | 
3 |  | CCCCCCCCCCCCCC(=O)O[C@H](CCCCCCCCCCCCC)CC(=O)N[C@H]1[C@H](OC[C@H]2OC(=O)[C@H](NC(=O)C[C@H](O)CCCCCCCCCCCCC)[C@@H](OC(=O)C[C@H](O)CCCCCCCCCCCCC)[C@@H]2O)O[C@H](CO)[C@@H](O)[C@@H]1OC(=O)C[C@H](O)CCCCCCCCCCCCC |  | Active
